Consider 12 compounds from ChEMBL document CHEMBL1153237, “3-(3-Aryloxyaryl)imidazo[1,2-a]pyridine sulfones as liver X receptor agonists” (Bioorg Med Chem Lett, 2010).

≈ marks a conversion by molar mass, not a printed value.

Data set [1] is described as follows: AUC (0 to last) in C57 mouse at 10 mg/kg, po. In kind it is ADME, organism-based. Details: dose 10 mg/kg, route oral, time 0 - last; call rule not given here. The conditions noted are these: plasma.
Data set [2] in a line: Tmax in C57 mouse at 10 mg/kg, po. Also on record: dose 10 mg/kg, route oral. The conditions noted are these: in vivo. In kind it is ADME, organism-based.
The nature of data set [3]: Solubility of the compound. The class given is physicochemical.
Data set [4] is described as follows: Cmax in C57 mouse at 10 mg/kg, po. Details: dose 10 mg/kg, route oral. The class given is ADME, organism-based. The conditions noted are these: in vivo.
In data set [5] the target is T1, Oxysterols receptor LXR-beta (Homo sapiens, UniProt P55055). As to conditions: huh-7.
T1 sequence (P55055 whole entry): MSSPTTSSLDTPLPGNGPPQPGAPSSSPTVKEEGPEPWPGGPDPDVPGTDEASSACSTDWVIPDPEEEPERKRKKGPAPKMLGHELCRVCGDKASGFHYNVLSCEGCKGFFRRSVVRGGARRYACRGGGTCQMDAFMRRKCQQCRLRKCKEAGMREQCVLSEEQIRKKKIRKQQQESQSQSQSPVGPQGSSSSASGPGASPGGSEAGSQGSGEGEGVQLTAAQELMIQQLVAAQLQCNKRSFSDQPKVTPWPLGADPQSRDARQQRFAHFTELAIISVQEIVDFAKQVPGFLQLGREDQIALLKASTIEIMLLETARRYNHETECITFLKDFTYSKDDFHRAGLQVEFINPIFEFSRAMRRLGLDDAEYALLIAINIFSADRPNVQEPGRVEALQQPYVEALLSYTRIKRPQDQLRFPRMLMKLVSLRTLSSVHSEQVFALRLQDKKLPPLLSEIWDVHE
The target in data set [6] is T2, Oxysterols receptor LXR-alpha (Homo sapiens, UniProt Q13133).
T2 sequence (Q13133 whole entry): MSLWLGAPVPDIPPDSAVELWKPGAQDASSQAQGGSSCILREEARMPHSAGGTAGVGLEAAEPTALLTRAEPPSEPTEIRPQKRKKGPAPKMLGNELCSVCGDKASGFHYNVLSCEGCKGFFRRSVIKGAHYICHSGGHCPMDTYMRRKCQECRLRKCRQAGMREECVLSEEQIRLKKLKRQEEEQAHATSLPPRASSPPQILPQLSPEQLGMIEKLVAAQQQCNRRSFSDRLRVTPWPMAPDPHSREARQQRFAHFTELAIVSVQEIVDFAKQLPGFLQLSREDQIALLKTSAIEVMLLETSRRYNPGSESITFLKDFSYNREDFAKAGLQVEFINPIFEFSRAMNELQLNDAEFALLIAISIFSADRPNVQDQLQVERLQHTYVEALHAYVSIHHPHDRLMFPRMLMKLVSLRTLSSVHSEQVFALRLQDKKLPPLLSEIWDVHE

The target in data set [7] is T1, Oxysterols receptor LXR-beta.
In data set [8] the target is T2, Oxysterols receptor LXR-alpha. As to conditions: huh-7.
Data set [9] in a line: Cmax in C57 mouse at 2.5 mg/kg, po. The class given is ADME, organism-based. Also on record: dose 2.5 mg/kg, route oral. As to conditions: in vivo.
Data set [10] in a line: AUC (0 to last) in C57 mouse at 2.5 mg/kg, po. Also on record: time 0 - last, dose 2.5 mg/kg, route oral. The class given is ADME, organism-based. The conditions noted are these: plasma.
A short description of data set [11]: Tmax in C57 mouse at 2.5 mg/kg, po. The class given is ADME, organism-based. Details: dose 2.5 mg/kg, route oral. The conditions noted are these: in vivo.
Data set [12] relates to THP-1. Description: Induction of ABCA1 mRNA upregulation in human THP1 cells relative to T0901317. In kind it is functional.
The subject of data set [13] is HepG2. Kind of data set: Cytotoxic effect as decreased triglyceride level in HepG2 cells after 3 uM treatment. The class given is cell-based. As to conditions: human, hepg2, 3 µM.
Data set [14] deals with HepG2. Description: Cytotoxic effect as decreased triglyceride level in HepG2 cells after 10 uM treatment. The conditions noted are these: human, hepg2, 10 µM. The class given is cell-based.
Data set [15] in a line: Half life in mouse liver microsomes. In kind it is ADME, Microsome. On the technique in general: Liver microsomes are vesicles of endoplasmic reticulum, rich in cytochrome P450 enzymes.
Data set [16] in a line: Half life in rat liver microsomes. In kind it is ADME, Microsome.
Data set [17] in a line: Half life in human liver microsomes. The class given is ADME, Microsome.
Data set [18] in a line: Half life in C57 mouse at 10 mg/kg, po. In kind it is ADME, organism-based. Details: dose 10 mg/kg, route oral. The conditions noted are these: in vivo.
Data set [19] relates to THP-1. Description: cells. As to conditions: Homo sapiens.
In data set [20] the test system is HepG2. Description: Increase in cellular triglyceride level in human HepG2 cells relative to T0901317. The class given is functional.
Data set [21] concerns HepG2. Description: cells. As to conditions: Homo sapiens.

By AUC(0-t) is commonly meant the area under the concentration-time curve up to a stated or last time point. The term Tmax denotes the time from dosing to the highest level. A word on the solubility: it is the dissolved amount per volume that the medium holds. Low readings indicate a poorly soluble substance, high ones a readily soluble substance. By Cmax is commonly meant the highest concentration seen after dosing. In the case of `Cc1nc2c(C(F)(F)F)cccc2n1-c1cccc(Oc2cccc(S(C)(=O)=O)c2)c1`, the exposure AUC(0-t) in data set [1] was found to be 8940 ng·h/mL. Further, the time to peak (Tmax) in [2] came to 120 min. The compound further displayed a solubility in data set [3] of 214 µg/mL (≈ 479 µM). The Cmax in [4] came to 614 ng/mL.

As usually defined, the EC50 is the concentration at which the effect is half-maximal. As to `CC(C)c1nc2c(C(F)(F)F)cccn2c1-c1ccc(-c2cccc(S(C)(=O)=O)c2)cc1`, in data set [5], the EC50 entry is recorded as “Not Active”.

Usually IC50 stands for the concentration that inhibits the measured activity by half. Read a low IC50 as inhibition by little substance. For `CC(C)c1nc2c(C(F)(F)F)cccn2c1-c1ccc(-c2ccc(S(C)(=O)=O)cc2)cc1`, the IC50 in data set [6] and in data set [7] was over 1000 nM throughout. Besides, the EC50 entry in [8] and in data set [5] was “Not Active” throughout.

Consider `Cc1cnc2c(C(F)(F)F)cccc2c1-c1cccc(Oc2cccc(S(C)(=O)=O)c2)c1`, for which, in [9], the peak concentration (Cmax) amounted to 457 ng/mL. Also, in data set [10], the AUC(0-t) worked out at 1690 ng·h/mL. Besides, in data set [11], the Tmax turned out to be 120 min. This compound also came in with a solubility in data set [3] of under 1 µg/mL.

For orientation: half-life means the time in which the quantity being followed falls by half. The low end stands for fast loss, the high end for slow loss. In turn, `CCS(=O)(=O)c1cccc(Oc2cccc(-c3c(C)nc4c(C(F)(F)F)cccn34)c2)c1` registered an Efficacy in the data set on THP-1 [12] of 100%. Also, the Decreased_triglyceride result with HepG2 [13] and in the data set on HepG2 [14] was “Cytotoxic potential” each time. Moreover, the half-life is 30 min in [15], 30 min in data set [16], 21 min in [17] and 366 min in data set [18]. In addition, the AUC(0-t) in [1] was determined as 7790 ng·h/mL. For the same compound, the time of peak concentration (Tmax) in data set [2] worked out at 60 min. The compound further returned a solubility in [3] of 68 µg/mL (≈ 148 µM). The compound also displayed a Cmax in data set [4] of 1420 ng/mL. In addition, the EC50 in the data set on THP-1 [19] was 130 nM.

For `Cc1nc2c(C(F)(F)F)cccn2c1-c1cccc(Oc2cccc(S(C)(=O)=O)c2)c1`, the Efficacy came out at 99% in the data set with THP-1 [12] and 8% in the data set with HepG2 [20]. In the data set on HepG2 [13], the Decreased_triglyceride result is recorded as “Cytotoxic potential”. The half-life in data set [15] was 30 min; in data set [16] it was 30 min; in data set [17] it was 30 min; in data set [18], 270 min. The same compound gave an AUC(0-t) in data set [1] of 4670 ng·h/mL. Also, the Tmax in data set [2] is 15 min. In data set [3], the solubility was over 100 µg/mL. In data set [4], the highest level (Cmax) was 1140 ng/mL. The EC50 turned out to be 125 nM in the data set with THP-1 [19] and 72 nM in the data set with HepG2 [21].

Turning to `CC(C)c1nc2c(C(F)(F)F)cccn2c1-c1cccc(OCc2ccc(S(C)(=O)=O)cc2)c1`, the IC50 in data set [6] and in [7] was over 1000 nM each time.

Regarding `CCc1nc2c(C(F)(F)F)cccn2c1-c1cccc(Oc2cccc(S(C)(=O)=O)c2)c1`, the Efficacy in the data set with THP-1 [12] came out at 65%; in the data set on HepG2 [20] it was 38%. In addition, the values for the half-life in [15], in [16] and in data set [17] were 20 min, 30 min and 30 min, respectively. In data set [3], this compound yielded a solubility of 228 µg/mL (≈ 495 µM). For the same compound, the results for the EC50 in the data set with THP-1 [19] and with HepG2 [21] were 243 nM and 227 nM, respectively.

Regarding `CS(=O)(=O)c1cccc(Oc2cccc(-c3c(Cc4ccccc4)nc4c(C(F)(F)F)cccn34)c2)c1`, the Efficacy in the data set with THP-1 [12] is given as 105%; in the data set on HepG2 [20] it was 81%. The values for the half-life in data set [15], in data set [16] and in data set [17] were 2 min, 7 min and 19 min, respectively. In data set [3], this compound came in with a solubility of 3 µg/mL (≈ 5.74 µM). The EC50 in the data set on THP-1 [19] came out at 120 nM; in the data set on HepG2 [21] it was 65 nM.

As for `CS(=O)(=O)c1cccc(Oc2cccc(-c3c(CN4CCCCC4)nc4c(C(F)(F)F)cccn34)c2)c1`, the values for the Efficacy in the data set on THP-1 [12] and in the data set on HepG2 [20] were 100% and 26%, respectively. Also, the results for the half-life in [15], in [16] and in [17] were 2 min, 5 min and 3 min, respectively. Also, the concentration in solution in [3] (solubility) was 73 µg/mL (≈ 138 µM). Further, the EC50 with THP-1 [19] was 44 nM; in the data set with HepG2 [21], 128 nM.

Consider `CS(=O)(=O)c1cccc(Oc2cccc(-c3c(CN4CCSC4)nc4c(C(F)(F)F)cccn34)c2)c1`, for which the Efficacy in the data set on THP-1 [12] is on record as 98%; with HepG2 [20], 36%. In addition, the half-life came out at 3 min in data set [15], 23 min in [16] and 6 min in data set [17]. Besides, the concentration in solution in data set [3] (solubility) was 1 µg/mL (≈ 1.87 µM). The figures for the EC50 in the data set on THP-1 [19] and in the data set on HepG2 [21] were 10 nM and 42 nM, respectively.

Turning to `O=S(=O)(c1ccccc1)N(CC(F)(F)F)c1ccc(C(O)(C(F)(F)F)C(F)(F)F)cc1` [T091317], in the data set on THP-1 [12], the Efficacy is 100%. Also, the half-life in data set [15], in [16] and in data set [17] was 30 min throughout.
